# Several values for one entry are separate records, joined by “and”; a condition that tells them apart may be missing. Identical values can stand only once. Like-named read-outs stand apart in the source and are kept apart here.
# Assays:
# S. enteritidis = type: cell-based, Salmonella enteritidis
# S. typhimurium DT 104 = type: cell-based, Salmonella typhimurium DT104
# L. monocytogenes = type: cell-based, Listeria monocytogenes
# [1] = system: spores of Bacillus anthracis Sterne; type: cell-based, Bacillus anthracis Sterne (34F2)
# [2] = system: Salmonella on whole chicken with feathers; experiment: Salmonella counts on whole chicken with feathers; type: cell-based; conditions: whole chickens with feathers soaked in 72 L at 21° C. for 5 min, chickens 1-5
Structure (SMILES),S. enteritidis counts at 0 min (S. enteritidis),S. enteritidis counts at 2 min (S. enteritidis),S. enteritidis counts at 5 min (S. enteritidis),S. enteritidis counts at 10 min (S. enteritidis),S. enteritidis counts at 20 min (S. enteritidis),S. enteritidis counts at 30 min (S. enteritidis),L. monocytogenes counts at 0 min (L. monocytogenes),L. monocytogenes counts at 2 min (L. monocytogenes),L. monocytogenes counts at 5 min (L. monocytogenes),L. monocytogenes counts at 10 min (L. monocytogenes),L. monocytogenes counts at 20 min (L. monocytogenes),L. monocytogenes counts at 30 min (L. monocytogenes),further results
"CC(=O)CCC(=O)O [0.1% levulinic acid (pH 2.5), levulinic acid]",7.1 log CFU/ml,7.1 log CFU/ml,6.9 log CFU/ml,7.0 log CFU/ml,6.9 log CFU/ml,6.9 log CFU/ml,,,,,,,
"CC(=O)O [0.5% acetic acid (pH 3.1), acetic acid]",7.1 log CFU/ml,7.0 log CFU/ml,6.8 log CFU/ml,6.7 log CFU/ml,6.6 log CFU/ml,6.5 log CFU/ml,,,,,,,
"CC(=O)CCC(=O)O [0.5% levulinic acid (pH 2.6), levulinic acid]",7.1 log CFU/ml,6.8 log CFU/ml,6.9 log CFU/ml,6.9 log CFU/ml,6.6 log CFU/ml,6.7 log CFU/ml,6.7 ± 0.2 log CFU/ml,6.7 ± 0.1 log CFU/ml,6.8 ± 0.3 log CFU/ml,6.9 ± 0.2 log CFU/ml,6.7 ± 0.2 log CFU/ml,6.8 ± 0.2 log CFU/ml,S. typhimurium DT 104 counts at 0 min (S. typhimurium DT 104): 6.8 log CFU/ml; S. typhimurium DT 104 counts at 1 min (S. typhimurium DT 104): 6.7 log CFU/ml; S. typhimurium DT 104 counts at 2 min (S. typhimurium DT 104): 6.6 log CFU/ml; S. typhimurium DT 104 counts at 5 min (S. typhimurium DT 104): 6.5 log CFU/ml; S. typhimurium DT 104 counts at 10 min (S. typhimurium DT 104): 6.7 log CFU/ml; S. typhimurium DT 104 counts at 20 min (S. typhimurium DT 104): 6.6 log CFU/ml; S. typhimurium DT 104 counts at 30 min (S. typhimurium DT 104): 6.4 log CFU/ml; S. typhimurium DT 104 counts at 60 min (S. typhimurium DT 104): 5.9 log CFU/ml
"CCCCCCCCCCCCOS(=O)(=O)[O-].[Na+] [0.05% sodium dodecyl sulfate (pH 4.4), sodium dodecyl sulfate]",7.1 log CFU/ml,7.0 log CFU/ml,7.2 log CFU/ml,7.1 log CFU/ml,7.2 log CFU/ml,7.1 log CFU/ml,,,,,,,Salmonella reduction (S. enteritidis): did not reduce Salmonella cell numbers; S. typhimurium DT 104 counts at 0 min (S. typhimurium DT 104): 7.0 log CFU/ml; S. typhimurium DT 104 counts at 1 min (S. typhimurium DT 104): 7.0 log CFU/ml; S. typhimurium DT 104 counts at 2 min (S. typhimurium DT 104): 6.8 log CFU/ml; S. typhimurium DT 104 counts at 5 min (S. typhimurium DT 104): 6.9 log CFU/ml; S. typhimurium DT 104 counts at 10 min (S. typhimurium DT 104): 6.8 log CFU/ml; S. typhimurium DT 104 counts at 20 min (S. typhimurium DT 104): 6.9 log CFU/ml; S. typhimurium DT 104 counts at 30 min (S. typhimurium DT 104): 6.9 log CFU/ml; S. typhimurium DT 104 counts at 60 min (S. typhimurium DT 104): 6.9 log CFU/ml; L. monocytogenes counts at 0 min (L. monocytogenes; 21° C.): 6.6 ± 0.3 log CFU/ml; L. monocytogenes counts at 2 min (L. monocytogenes; 21° C.): 6.4 ± 0.1 log CFU/ml; L. monocytogenes counts at 5 min (L. monocytogenes; 21° C.): 6.0 ± 0.1 log CFU/ml; L. monocytogenes counts at 10 min (L. monocytogenes; 21° C.): 5.0 ± 0.3 log CFU/ml; L. monocytogenes counts at 20 min (L. monocytogenes; 21° C.): 3.8 ± 0.2 log CFU/ml; L. monocytogenes counts at 30 min (L. monocytogenes; 21° C.): 3.3 ± 0.1 log CFU/ml
"CC(=O)CCC(=O)O [1.0% levulinic acid (pH 2.9), levulinic acid]",6.9 log CFU/ml,6.7 log CFU/ml,6.8 log CFU/ml,6.9 log CFU/ml,6.9 log CFU/ml,6.7 log CFU/ml,6.8 ± 0.3 log CFU/ml,6.7 ± 0.2 log CFU/ml,6.6 ± 0.3 log CFU/ml,6.6 ± 0.3 log CFU/ml,6.6 ± 0.0 log CFU/ml,6.6 ± 0.3 log CFU/ml,
"CC(=O)CCC(=O)O [1.5% levulinic acid (pH 2.8), levulinic acid]",6.7 log CFU/ml,6.7 log CFU/ml,6.8 log CFU/ml,6.7 log CFU/ml,6.4 log CFU/ml,6.5 log CFU/ml,6.9 ± 0.1 log CFU/ml,6.9 ± 0.2 log CFU/ml,6.9 ± 0.3 log CFU/ml,6.9 ± 0.1 log CFU/ml,6.9 ± 0.3 log CFU/ml,6.8 ± 0.3 log CFU/ml,
"CC(=O)CCC(=O)O [2.0% levulinic acid (pH 2.8), levulinic acid]",6.7 log CFU/ml,6.7 log CFU/ml,6.7 log CFU/ml,6.8 log CFU/ml,6.5 log CFU/ml,6.0 log CFU/ml,6.8 ± 0.3 log CFU/ml,6.8 ± 0.2 log CFU/ml,6.9 ± 0.2 log CFU/ml,6.7 ± 0.2 log CFU/ml,6.9 ± 0.2 log CFU/ml,6.8 ± 0.2 log CFU/ml,
"CC(=O)CCC(=O)O [2.5% levulinic acid (pH 2.6), levulinic acid]",6.9 log CFU/ml,6.8 log CFU/ml,6.9 log CFU/ml,6.4 log CFU/ml,5.8 log CFU/ml,4.8 log CFU/ml,,,,,,,
"CC(=O)CCC(=O)O [3.0% levulinic acid (pH 2.7), levulinic acid]",6.6 log CFU/ml,6.8 log CFU/ml,6.5 log CFU/ml,6.2 log CFU/ml,5.1 log CFU/ml,3.8 log CFU/ml,,,,,,,"CFU % recovery (as compared to control flask F), 0 min [1]: 89% and 70% and 75%; CFU % recovery (as compared to control flask F), 10 min [1]: 81%; CFU % recovery (as compared to control flask F), 45 min [1]: 55%; CFU % recovery (as compared to control flask F), 1 h [1]: 54% and 78% and 80% and 58%; CFU % recovery (as compared to control flask F), 90 min [1]: 64%; CFU % recovery (as compared to control flask F), 2 h [1]: 27% and 45% and 46% and 34%"
[Ca+2].[O-]Cl.[O-]Cl [50 ppm calcium hypochlorite],,,,,,,,,,,,,Salmonella counts after treatment ([2]; left breast): 7.0 log CFU/9 cm^2 and 8.7 log CFU/9 cm^2 and 7.9 log CFU/9 cm^2 and 8.1 log CFU/9 cm^2; Salmonella counts after treatment ([2]; left wing): 7.6 log CFU/9 cm^2 and 8.0 log CFU/9 cm^2 and 8.1 log CFU/9 cm^2 and 8.8 log CFU/9 cm^2 and 8.5 log CFU/9 cm^2; Salmonella counts after treatment ([2]; neck): 7.9 log CFU/9 cm^2 and 8.9 log CFU/9 cm^2 and 8.5 log CFU/9 cm^2 and 8.1 log CFU/9 cm^2; Salmonella counts after treatment ([2]; right breast): 7.9 log CFU/9 cm^2 and 8.3 log CFU/9 cm^2 and 8.0 log CFU/9 cm^2 and 8.5 log CFU/9 cm^2 and 7.8 log CFU/9 cm^2; Salmonella counts after treatment ([2]; right wing): 8.4 log CFU/9 cm^2 and 8.0 log CFU/9 cm^2 and 7.6 log CFU/9 cm^2
CCCCCCCCCCCCOS(=O)(=O)[O-].[Na+] [E],,,,,,,,,,,,,"CFU % recovery (as compared to control flask F), 10 min [1]: 65%; CFU % recovery (as compared to control flask F), 45 min [1]: 94%; CFU % recovery (as compared to control flask F), 90 min [1]: 144%; CFU % recovery (as compared to control flask F), 2 h [1]: 87% and 74% and 103% and 53%; CFU % recovery (as compared to control flask F), 180 min [1]: 95%; CFU % recovery (as compared to control flask F), 3 h [1]: 98% and 68% and 113% and 71%; effectiveness versus water control F [1]: not more effective than the water control F; recovery levels over time [1]: did not decrease"

# — patent US8722123B2, “Antimicrobial composition and use as food treatment” (priority 2008, dated 2014)
